Values quoted from earlier work in US12194020B2, “Reversing baldness through cannabinoid receptor activation” (priority 2017, dated 2025).

Legend:
NO production = conditions: read-out: IC50, inhibits NO production
CB2 = CB2 (Homo sapiens, UniProt P34972)
[1] = test system: human scalp hair follicles (HF); conditions: human HF organ culture
[2] = bimatoprost applied to the base of the fingernails

Sequence of CB2 (P34972 whole entry, species assumed): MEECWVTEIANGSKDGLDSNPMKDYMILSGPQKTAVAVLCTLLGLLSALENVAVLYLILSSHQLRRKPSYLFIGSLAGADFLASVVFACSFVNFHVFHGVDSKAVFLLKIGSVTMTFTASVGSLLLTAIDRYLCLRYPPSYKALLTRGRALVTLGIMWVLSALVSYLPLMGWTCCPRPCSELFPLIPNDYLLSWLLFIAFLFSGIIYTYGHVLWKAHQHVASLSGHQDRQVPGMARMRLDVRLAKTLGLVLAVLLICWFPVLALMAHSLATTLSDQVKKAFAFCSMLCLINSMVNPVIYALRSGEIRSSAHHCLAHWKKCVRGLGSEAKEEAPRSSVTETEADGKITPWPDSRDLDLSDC

Compound: C=CCc1ccc(O)c(-c2cc(CC=C)ccc2O)c1 [magnolol]
- IC50 (NO production): ~6.2 µM

Compound: desulfohaplosamate
- affinity for CB2 (CB2): higher affinity

Compound: CCCCC/C=C\C/C=C\C/C=C\C/C=C\CCCC(=O)NCCO [AEA, N-arachidonoylethanolamide]
- apoptosis of cultured human HF / hair matrix keratinocytes [1]: stimulates apoptosis
- hair matrix / HF keratinocyte proliferation [1]: significantly (P<0.05) and dose-dependently inhibited
- hair shaft elongation [1]: significantly (P<0.05) and dose-dependently inhibited

Compound: CCCCCc1cc(O)c2c(c1)OC(C)(C)[C@@H]1CCC(C)=C[C@@H]21 [THC, Δ^9-tetrahydrocannabinol]
- apoptosis of cultured human HF / hair matrix keratinocytes [1]: induced
- catagen development [1]: premature catagen development
- hair matrix / HF keratinocyte proliferation [1]: suppressed proliferation
- hair shaft elongation [1]: significantly inhibited

Compound: CCNC(=O)CCC/C=C\C[C@@H]1[C@@H](/C=C/[C@@H](O)CCc2ccccc2)[C@H](O)C[C@@H]1O [bimatoprost]
- increase in fingernail growth from baseline [2]: 16.9%

Compound: Cc1c(C(=O)NN2CCCCC2)nn(-c2ccc(Cl)cc2Cl)c1-c1ccc(Cl)cc1 [SR141716A]
- affinity for CB2 (CB2): very low affinity

Compound: haplosamate A
- affinity for CB1 (CB1): strong affinity
